# Test results as given in patent publication US9533977B2, “Oxazolidinone derivative as CETP inhibitor, its preparation method, and pharmaceutical composition comprising the same” (DONG-A ST CO., LTD., priority 2013, dated 2017).
# Target: T1, CETP (Homo sapiens, UniProt P11597)
# T1 construct: from tissue; host or cells: human plasma from healthy men
# T1 sequence (P11597 18-493): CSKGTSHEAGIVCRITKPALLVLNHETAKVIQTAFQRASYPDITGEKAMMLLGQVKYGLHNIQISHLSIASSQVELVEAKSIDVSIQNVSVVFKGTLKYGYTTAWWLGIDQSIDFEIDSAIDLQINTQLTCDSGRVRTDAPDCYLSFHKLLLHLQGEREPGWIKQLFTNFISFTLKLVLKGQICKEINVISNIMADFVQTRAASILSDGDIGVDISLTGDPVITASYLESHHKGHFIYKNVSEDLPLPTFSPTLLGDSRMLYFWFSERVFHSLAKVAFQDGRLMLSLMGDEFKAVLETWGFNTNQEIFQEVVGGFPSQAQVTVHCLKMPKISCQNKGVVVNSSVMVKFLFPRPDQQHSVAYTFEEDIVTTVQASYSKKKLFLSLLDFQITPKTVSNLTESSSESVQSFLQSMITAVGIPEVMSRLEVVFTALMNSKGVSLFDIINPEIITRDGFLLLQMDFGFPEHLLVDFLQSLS
# Test: Inhibitory activity against CETP in human plasma (Roar CETP activity kit, fluorescence)
# Assay type: biochemical
# Conditions: plasma from healthy men diluted 1:10 in assay buffer, 37° C., 3 hrs, fluorescence 465/535 nm; read-out: IC50, Inhibition of CETP Activity in Human Plasma
# Method in brief: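 Healthy male human plasma, diluted 1:10, incubated 3 hrs at 37° C with donor/acceptor fluorescent substrates and compound (0.01–10000 nM, DMSO). Fluorescence at ex 465/em 535 nm, background-corrected against no-plasma and no-compound wells; IC50 from sigmoidal fit.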
row,Compound,IC50
1,CCN(C[C@H]1CC[C@H](CC(=O)O)CC1)c1ncc(-c2ccccc2)nc1CN1C(=O)OC(c2cc(C(F)(F)F)cc(C(F)(F)F)c2)[C@@H]1C (stereo partly shown) [Example 116],6.29 nM
2,"CCN(c1ncc(-c2c(C)n[nH]c2C)cc1CN1C(=O)O[C@H](c2cc(C(F)(F)F)cc(C(F)(F)F)c2)[C@@H]1C)C1CCCCC1 [Example 65, (4S,5R)-5-[3,5-bis(trifluoromethyl)phenyl]-4-methyl-3-({[2-(ethyl)(cyclohexyl-4-yl)amino]-5-(3,5-dimethyl-1H-pyrazol-4-yl)pyridin-3-yl}methyl)-oxazolidin-2-one]",224 nM
3,"CCOC(=O)N1CCC(N(CC)c2ncc(C(F)(F)F)cc2CN2C(=O)O[C@H](c3cc(C(F)(F)F)cc(C(F)(F)F)c3)[C@@H]2C)CC1 [Example 36, ethyl 4-{[3-({(4S,5R)-5-[3,5-bis(trifluoromethyl)phenyl]-4-methyl-2-oxo-oxazolidin-3-yl}methyl)-5-(trifluoromethyl)pyridin-2-yl](ethyl)amino}piperidine-1-carboxylate]",220 nM
4,CCN(C[C@H]1CC[C@H](CC(=O)O)CC1)c1ncc(-c2cccs2)nc1CN1C(=O)OC(c2cc(C(F)(F)F)cc(C(F)(F)F)c2)[C@@H]1C (stereo partly shown) [Example 114],10.3 nM
5,"CCOc1cccc(-c2cnc(N(CC)C3CCOCC3)c(CN3C(=O)O[C@H](c4cc(C(F)(F)F)cc(C(F)(F)F)c4)[C@@H]3C)c2)c1 [Example 48, (4S,5R)-5-[3,5-bis(trifluoromethyl)phenyl]-4-methyl-3-({[2-(ethyl)(tetrahydro-2H-pyran-4-yl)amino]-5-(3-ethoxyphenyl)pyridin-3-yl}methyl)-oxazolidin-2-one]",133 nM
6,"Cc1noc(C)c1-c1cnc(N(C)C2CCCCC2)c(CN2C(=O)O[C@H](c3cc(C(F)(F)F)cc(C(F)(F)F)c3)[C@@H]2C)c1 [Example 57, (4S,5R)-5-[3,5-bis(trifluoromethyl)phenyl]-4-methyl-3-({[2-(methyl)(cyclohexyl-4-yl)amino]-5-(3,5-dimethylisoxazol-4-yl)pyridin-3-yl}methyl)-oxazolidin-2-one]",16.7 nM
7,"(4S,5R)-5-[3,5-bis(trifluoromethyl)phenyl]-4-methyl-3-({[2-(ethyl)(cyclohexyl)amino]-5-(2,4-dimethyl-thiazol-5-yl)pyridin-3-yl}methyl)-oxazolidin-2-one [Example 84]",29.7 nM
8,"CCN(CC1CCC(CC(=O)O)CC1)c1ncc(-c2nccs2)nc1CN1C(=O)OC(c2cc(C(F)(F)F)cc(C(F)(F)F)c2)C1C [Example 112, trans-4-({[3-({(4S,5S)-5-[3,5-bis(trifluoromethyl)phenyl]-4-methyl-2-oxazolidin-3-yl}methyl)-5-(thiazol-2-yl)pyrazin-2-yl]{[N-(ethyl)aminomethyl]cyclohexyl)}acetic acid]",37.4 nM
9,CCN(c1ncc(C#N)cc1CN1C(=O)O[C@H](c2cc(C(F)(F)F)cc(C(F)(F)F)c2)[C@@H]1C)C1CCCCC1 [Example 54],19 nM
10,"CCN(c1ncc(-c2sccc2C)cc1CN1C(=O)O[C@H](c2cc(C(F)(F)F)cc(C(F)(F)F)c2)[C@@H]1C)C1CCCCC1 [Example 78, (4S,5R)-5-[3,5-bis(trifluoromethyl)phenyl]-4-methyl-3-({[2-(ethyl)(cyclohexyl)amino]-5-(3-methyl-thiophen-2-yl)pyridin-3-yl}methyl)-oxazolidin-2-one]",17.7 nM
11,"CCN(c1ncc(-c2cnn(C)c2)cc1CN1C(=O)O[C@H](c2cc(C(F)(F)F)cc(C(F)(F)F)c2)[C@@H]1C)C1CCCCC1 [Example 62, (4S,5R)-5-[3,5-bis(trifluoromethyl)phenyl]-4-methyl-3-({[2-(ethyl)(cyclohexyl)amino]-5-(1-methyl-1H-pyrazol-4-yl)pyridin-3-yl}methyl)-oxazolidin-2-one]",151 nM
12,"CCN(c1ncc(-c2c(C)nn(C)c2C)cc1CN1C(=O)O[C@H](c2cc(C(F)(F)F)cc(C(F)(F)F)c2)[C@@H]1C)C1CCCCC1 [Example 64, (4S,5R)-5-[3,5-bis(trifluoromethyl)phenyl]-3-({[2-(ethyl)(cyclohexyl)amino]-5-(1,3,5-trimethyl-1H-pyrazol-4-yl}pyridin-3-yl}methyl)-oxazolidin-2-one]",29.3 nM

# Further lines, results first:
row,IC50,Compound
1,73.4 nM,"CCN(c1ncccc1CN1C(=O)O[C@H](c2cc(C(F)(F)F)cc(C(F)(F)F)c2)[C@@H]1C)C1CCOCC1 [Example 52, (4S,5R)-5-[3,5-bis(trifluoromethyl)phenyl]-4-methyl-3-({[2-(ethyl)(tetrahydro-2H-pyran-4-yl)amino]-pyridin-3-yl}methyl)-oxazolidin-2-one]"
2,3.11 nM,CCN(C[C@H]1CC[C@H](CC(=O)O)CC1)c1ncc(-c2sccc2C)nc1CN1C(=O)OC(c2cc(C(F)(F)F)cc(C(F)(F)F)c2)[C@@H]1C (stereo partly shown) [Example 111]
3,194 nM,"(4S,5R)-5-[3,5-bis(trifluoromethyl)phenyl]-4-methyl-3-({2-[(3R,4R)-4-ethoxytetrahydrofuran-3-yl)(methyl)amino]-5-(trifluoromethyl)pyridin-3-yl}methyl)-oxazolidin-2-one [Example 3]"
4,15.6 nM,"Cc1noc(C)c1-c1cnc(N2CCCC(C(F)(F)F)C2)c(CN2C(=O)O[C@@H](c3cc(C(F)(F)F)cc(C(F)(F)F)c3)[C@@H]2C)n1 (stereo partly drawn) [Example 100, (4S,5S)-5-[3,5-bis(trifluoromethyl)phenyl]-3-{[6-(3,5-dimethylisoxazol-4-yl)-3-[3-(trifluoromethyl)piperidin-1-yl]pyrazin-2-yl]methyl}-4-methyloxazolidin-2-one]"
5,91 nM,"C[C@H]1[C@@H](c2cc(C(F)(F)F)cc(C(F)(F)F)c2)OC(=O)N1Cc1cc(C(F)(F)F)cnc1N(CCO)C1CCOCC1 [Example 18, (4S,5R)-5-[3,5-Bis(trifluoromethyl)phenyl]-4-methyl-3-({[2-(hydroxyethyl)(tetrahydro-2H-pyran-4-yl)amino]-5-(trifluoromethyl)pyridin-3-yl}methyl)-oxazolidin-2-one]"
6,7.19 nM,CCCN(C[C@H]1CC[C@H](CC(=O)O)CC1)c1ncc(-c2c(C)noc2C)nc1CN1C(=O)OC(c2cc(C(F)(F)F)cc(C(F)(F)F)c2)[C@@H]1C (stereo partly shown) [Example 123]
7,63.2 nM,CCOC(=O)c1c(C)noc1-c1cnc(N(CC)C2CCCCC2)c(CN2C(=O)O[C@H](c3cc(C(F)(F)F)cc(C(F)(F)F)c3)[C@@H]2C)c1 [Example 74]
8,16 nM,CCN(C[C@H]1CC[C@H](CC(=O)O)CC1)c1ncc(-c2cscn2)nc1CN1C(=O)OC(c2cc(C(F)(F)F)cc(C(F)(F)F)c2)[C@@H]1C (stereo partly shown) [Example 113]
9,8.86 nM,CCN(C[C@H]1CC[C@H](CCO)CC1)c1ncc(-c2c(C)noc2C)nc1CN1C(=O)OC(c2cc(C(F)(F)F)cc(C(F)(F)F)c2)[C@@H]1C (stereo partly shown) [Example 130]
10,45 nM,"CCN(c1ncc(-c2cccc(F)c2)cc1CN1C(=O)O[C@H](c2cc(C(F)(F)F)cc(C(F)(F)F)c2)[C@@H]1C)C1CCOCC1 [Example 47, (4S,5R)-5-[3,5-bis(trifluoromethyl)phenyl]-4-methyl-3-({[2-(ethyl)(tetrahydro-2H-pyran-4-yl)amino]-5-(3-fluorophenyl)pyridin-3-yl}methyl)-oxazolidin-2-one]"
11,14 nM,"CCCN(c1ncc(C(F)(F)F)cc1CN1C(=O)O[C@H](c2cc(C(F)(F)F)cc(C(F)(F)F)c2)[C@@H]1C)C1CCOCC1 [Example 8, (4S,5R)-5-[3,5-bis(trifluoromethyl)phenyl]-4-methyl-3-({[2-(propyl)(tetrahydro-2H-pyran-4-yl)amino]-5-(trifluoromethyl)pyridin-3-yl}methyl)-oxazolidin-2-one]"
12,62 nM,"CCC(=O)N1CCC(N(CC)c2ncc(C(F)(F)F)cc2CN2C(=O)O[C@H](c3cc(C(F)(F)F)cc(C(F)(F)F)c3)[C@@H]2C)CC1 [Example 34, (4S,5R)-5-[3,5-bis(trifluoromethyl)phenyl]-4-methyl-3-({[2-(ethyl)(1-propionylpiperidin-4-yl)amino]-5-(trifluoromethyl)pyridin-3-yl}methyl)-oxazolidin-2-one]"
13,46.3 nM,"CCN(c1ncc(-c2nnnn2C)cc1CN1C(=O)O[C@H](c2cc(C(F)(F)F)cc(C(F)(F)F)c2)[C@@H]1C)C1CCCCC1 [Example 66, (4S,5R)-5-[3,5-bis(trifluoromethyl)phenyl]-4-methyl-3-({[2-(ethyl)(cyclohexyl)amino]-5-(1-methyl-1H-tetrazol-5-yl)pyridin-3-yl}methyl)-oxazolidin-2-one]"
14,39.9 nM,"CCN(c1ncc(C(F)(F)F)cc1CN1C(=O)O[C@H](c2cc(C(F)(F)F)cc(C(F)(F)F)c2)[C@@H]1C)C1CCN(C(C)=O)CC1 [Example 33, (4S,5R)-5-[3,5-bis(trifluoromethyl)phenyl]-4-methyl-3-({[2-(ethyl)(1-acetylpiperidin-4-yl)amino]-5-(trifluoromethyl)pyridin-3-yl}methyl)-oxazolidin-2-one]"
15,5.7 nM,"CCN(c1ncc(-c2ccnn2C)cc1CN1C(=O)O[C@H](c2cc(C(F)(F)F)cc(C(F)(F)F)c2)[C@@H]1C)C1CCCCC1 [Example 59, (4S,5R)-5-[3,5-bis(trifluoromethyl)phenyl]-4-methyl-3-({[2-(ethyl)(cyclohexyl)amino]-5-(1-methyl-1H-pyrazol-5-yl)pyridin-3-yl}methyl)-oxazolidin-2-one]"
16,4.68 nM,CCN(C[C@H]1CC[C@H](CC(=O)O)CC1)c1ncc(C2CCC2)nc1CN1C(=O)OC(c2cc(C(F)(F)F)cc(C(F)(F)F)c2)[C@@H]1C (stereo partly shown) [Example 122]
